Biological target: Human MGAT-2 (Homo sapiens (Human), UniProt Q3SYC2)
Assay: MGAT LCMS Assay (human MGAT-2);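 also: diolein product quantified by LC/MS with positive APCI, expressed as peak area ratio versus an internal standard, and this ratio used to derive IC50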
Type: biochemical
Settings: human MGAT-2 membranes expressed in Sf9 cells; 2-oleoylglycerol and oleoyl-Coenzyme A; read-out: h-MGAT2 IC50 (nM) LCMS Assay

Sequence of Human MGAT-2 (Q3SYC2 whole entry): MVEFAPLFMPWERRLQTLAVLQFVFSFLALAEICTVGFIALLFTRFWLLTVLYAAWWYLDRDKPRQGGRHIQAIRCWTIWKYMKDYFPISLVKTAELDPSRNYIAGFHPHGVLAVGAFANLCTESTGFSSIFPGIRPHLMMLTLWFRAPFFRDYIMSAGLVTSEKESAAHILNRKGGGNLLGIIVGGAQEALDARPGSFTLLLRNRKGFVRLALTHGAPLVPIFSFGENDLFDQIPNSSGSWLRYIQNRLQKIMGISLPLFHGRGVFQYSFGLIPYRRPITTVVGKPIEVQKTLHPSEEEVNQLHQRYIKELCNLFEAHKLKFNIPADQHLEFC

Row | Structure (SMILES) | IC50 [nM]
1 | COc1ccc(NC(=O)C2=C(c3ccc(C)cc3)C(F)(F)C(c3ccc(OC)cc3)(C(F)(F)F)NC2=O)cc1 (stereo not shown) [Example 181] | 2050
2 | Cc1ccc(C2=C(NC(=O)c3cccnc3)C(=O)NC(c3ccc(OCCCC(F)(F)F)cc3)(C(F)(F)F)C2)cc1 (stereo not shown) [Example 299] | 11
3 | CCCCOc1ccc(C2(C)CC(c3ccc(C)cc3)=C(C#N)C(=O)N2)cc1 (stereo not shown) [Example 107, 6-(4-Butoxyphenyl)-6-methyl-2-oxo-4-p-tolyl-1,2,5,6-tetrahydropyridine-3-carbonitrile] | 93
4 | Cc1ccc(C2=C(c3nn[nH]n3)C(=O)NC(c3ccc(OCCC4CC4)cc3)(C(F)(F)F)C2)cc1 (stereo not shown) [Example 285] | 4
5 | CS(=O)(=O)CC(=O)NC1=C(c2ccc(OCC(F)F)cc2)CC(c2ccc(OCCCC(F)(F)F)cc2)(C(F)(F)F)NC1=O (stereo not shown) [Example 251] | 3
6 | COc1ccc(NC(=O)C2=C(c3ccc(C)cc3F)CC(c3ccc(OCCCC(F)(F)F)cc3)(C(F)(F)F)NC2=O)cc1 (stereo not shown) [Example 296] | 2
7 | Cc1ccc(C2=C(c3cn[nH]n3)C(=O)NC(C#CC3CC3)(C(F)(F)F)C2)cc1 (stereo not shown) [Example 197] | 178
8 | Cc1ccc(C2=C(NC(=O)CS(C)(=O)=O)C(=O)NC(c3ccc(OCCCC(F)(F)F)cc3)(C(F)(F)F)C2)cc1 (stereo not shown) [Example 239] | 15
9 | Cc1ccc(C2=C(NC(=O)c3ccc(OC(F)F)cc3)C(=O)NC(c3cnn(CCCCCC(F)(F)F)c3)(C(F)(F)F)C2)cc1 (stereo not shown) [Example 201] | 24
10 | O=C1NC(c2ccc(OCCCC(F)(F)F)cc2)(C(F)(F)F)CC(c2ccccc2)=C1c1nn[nH]n1 (stereo not shown) [Example 97] | 1200
11 | COc1ccc(C2=C(NC(=O)CS(C)(=O)=O)C(=O)NC(c3ccc(OCCCC(F)(F)F)cc3)(C(F)(F)F)C2)cc1 (stereo not shown) [Example 252] | 7
12 | Cc1ccc(C2=C(C(O)Nc3ccccc3)C(=O)NC(c3ccc(OCCCC(F)(F)F)cc3)(C(F)(F)F)C2)cc1 (stereo not shown) [Example 115] | 40
13 | Cc1ccc(C2=C(C(=O)Nc3cn(C)cn3)C(=O)NC(c3ccc(OCCCC(F)(F)F)cc3)(C(F)(F)F)C2)cc1 (stereo not shown) [Example 87] | 1220
14 | Cc1ccc(C2=C(NC(=O)c3cccc(Cl)c3)C(=O)NC(c3ccc(OCCCC(F)(F)F)cc3)(C(F)(F)F)C2)cc1 (stereo not shown) [Example 169] | 421
15 | O=C1NC(c2ccc(OCCCC(F)(F)F)cc2)(C(F)(F)F)CC(c2ccc(OC(F)(F)F)cc2)=C1c1nn[nH]n1 (stereo not shown) [Example 243] | 14
16 | CCCCCC#CC1(C(F)(F)F)CC(c2ccc(C)cc2)=C(c2cn[nH]n2)C(=O)N1 (stereo not shown) [Example 194] | 6
17 | Cc1ccc(C2=C(c3nn[nH]n3)C(=O)NC(c3cnn(CCCCC(F)(F)F)c3)(C(F)(F)F)C2)cc1 (stereo not shown) [Example 12, 3-(2H-Tetrazol-5-yl)-4-p-tolyl-6-(trifluoromethyl)-6-(1-(5,5,5-trifluoropentyl)-1H-pyrazol-4-yl)-5,6-dihydropyridin-2(1H)-one] | 374
18 | COc1ccc(NC(=O)C2=C(c3ccc(C)cc3)CC(C)(C(=O)NCCCc3ccccc3)NC2=O)cc1 (stereo not shown) [Example 175] | 264
19 | Cc1ccc(C2=C(C(=O)Nc3ccccc3OC(F)(F)F)C(=O)NC(c3ccc(OCCC(F)(F)F)cc3)(C(F)(F)F)C2)cc1 (stereo not shown) [Example 137] | 252
20 | Cc1cc(C2=C(C#N)C(=O)NC(c3ccc(OCCCC(F)(F)F)cc3)(C(F)(F)F)C2)ccc1Cl (stereo not shown) [Example 221] | 152

Row | Structure (SMILES) | IC50 [nM]
21 | Cc1ccc(C2=C(NC(=O)c3ccccc3Cl)C(=O)NC(c3ccc(OCCCC(F)(F)F)cc3)(C(F)(F)F)C2)cc1 (stereo not shown) [Example 168] | 113
22 | COc1ccc(C2=C(C#N)C(=O)NC(c3ccc(OCCCC(F)(F)F)cc3)(C(F)(F)F)C2)cc1C (stereo not shown) [Example 215] | 11
23 | COc1ccc(C2=C(c3nn[nH]n3)C(=O)NC(c3ccc(OCCCC(F)(F)F)cc3)(C(F)(F)F)C2)cc1 (stereo not shown) [Example 244] | 61
24 | COc1ccc(C2=C(C#N)C(=O)NC(c3ccc(OCCCC(F)(F)F)cc3)(C(F)(F)F)C2)cc1F (stereo not shown) [Example 218] | 166
25 | CCCCCCc1cnc(C2(C)CC(c3ccc(C)cc3)=C(C#N)C(=O)N2)o1 (stereo not shown) [Example 108, 6-(5-Hexyloxazol-2-yl)-6-methyl-2-oxo-4-p-tolyl-1,2,5,6-tetrahydropyridine-3-carbonitrile] | 189
26 | Cc1ccc(C2=C(c3nnn[nH]3)C(=O)NC(c3ccc(OCCCC(F)(F)F)cc3)(C(F)(F)F)C2)c(C)c1 (stereo not shown) [Example 156] | 254
27 | COc1ccc(C2=C(c3nn[nH]n3)C(=O)NC(c3ccc(OCCCC(F)(F)F)cc3)(C(F)(F)F)C2)cc1 (stereo not shown) [Example 193] | 46
28 | COc1cc(C(=O)NC2=C(c3ccc(C)cc3)CC(c3ccc(OCCCC(F)(F)F)cc3)(C(F)(F)F)NC2=O)on1 (stereo not shown) [Example 187] | 4
29 | COc1ccc(NC(=O)C2=C(c3ccc(C)cc3)CC(C)(C(=O)NCCCC(F)(F)F)NC2=O)cc1 (stereo not shown) [Example 102, N^5-(4-Methoxyphenyl)-2-methyl-6-oxo-4-p-tolyl-N^2-(4,4,4-trifluorobutyl)-1,2,3,6-tetrahydropyridine-2,5-dicarboxamide] | 1090
30 | Cc1ccc(C2=C(c3nn[nH]n3)C(=O)NC(c3ccc(OCC4CC(F)(F)C4)cc3)(C(F)(F)F)C2)cc1 (stereo not shown) [Example 288] | 19
31 | Cc1ccc(C2=C(c3nn[nH]n3)C(=O)NC(c3ccc(OCCCC(F)(F)F)cc3)(C(F)F)C2)cc1 (stereo not shown) [Example 213] | 1100
32 | Cc1ccc(C2=C(C(=O)Nc3cccc(C)c3)C(=O)NC(c3ccc(OCCC(F)(F)F)cc3)(C(F)(F)F)C2)cc1 (stereo not shown) [Example 128] | 328
33 | O=C1NC(c2ccc(OCCCC(F)(F)F)cc2)(C(F)(F)F)CC(c2ccc3c(c2)CCO3)=C1c1nn[nH]n1 (stereo not shown) [Example 237] | 130
34 | Cc1ccc(C2=C(N)C(=O)N[C@@](c3ccc(OCCCC(F)(F)F)cc3)(C(F)(F)F)C2)cc1 [Example 104, (S)-3-Amino-4-p-tolyl-6-(4-(4,4,4-trifluorobutoxy)phenyl)-6-(trifluoromethyl)-5,6-dihydropyridin-2(1H)-one] | 103
35 | O=C1NC(c2ccc(OCCCCCC(F)(F)F)c(F)c2)(C(F)(F)F)CC(c2ccc3ccccc3c2)=C1c1nn[nH]n1 (stereo not shown) [Example 304] | 6
36 | O=C1NC(c2ccc(OCCCCCC(F)(F)F)cc2F)(C(F)(F)F)CC(c2ccc(OC(F)F)cc2)=C1c1nn[nH]n1 (stereo not shown) [Example 274] | 1
37 | N#CC1=C(c2ccc(Cl)c(F)c2)CC(c2ccc(OCCCC(F)(F)F)cc2)(C(F)(F)F)NC1=O (stereo not shown) [Example 220] | 13
38 | COc1ccc(C2=C[C@@](c3ccc(OCCCC(F)(F)F)cc3)(C(F)(F)F)NC(=O)C2(F)C#N)cc1 (stereo in doubt) [Example 15-3, 3-Fluoro-4-(4-methoxyphenyl)-2-oxo-6-(4-(4,4,4-trifluorobutoxyl)phenyl)-6-(trifluoromethyl)-1,2,3,6-tetrahydropyridine-3-carbonitrile] | 756
39 | COc1ccc(C2=C(c3nn[nH]n3)C(=O)NC(C#CCCC(C)C)(C(F)(F)F)C2)cc1 (stereo not shown) [Example 295] | 183
40 | CC(=O)C(=O)NC1=C(c2ccc(C)cc2)CC(c2ccc(OCCCC(F)(F)F)cc2)(C(F)(F)F)NC1=O (stereo not shown) [Example 250] | 243

Row | Structure (SMILES) | IC50 [nM]
41 | Cc1ccc(C2=C(C#N)C(=O)NC(c3ccc(OCCCC(F)(F)F)cc3)(C(F)(F)F)C2)cc1F (stereo not shown) [Example 256] | 22
42 | CCCCCCCCNC(=O)C1(C)CC(c2ccc(C)cc2)=C(C#N)C(=O)N1 (stereo not shown) [Example 177] | 399
43 | COc1ccc(C2=C[C@](c3ccc(OCCCC(F)(F)F)cc3)(C(F)(F)F)NC(=O)C2(F)C#N)cc1 (single isomer, unassigned) [Example 15-2, 3-Fluoro-4-(4-methoxyphenyl)-2-oxo-6-(4-(4,4,4-trifluorobutoxyl)phenyl)-6-(trifluoromethyl)-1,2,3,6-tetrahydropyridine-3-carbonitrile] | 431
44 | Cc1ccc(C2=C(NC(=O)c3ccn(C)n3)C(=O)NC(c3ccc(OCCCC(F)(F)F)cc3)(C(F)(F)F)C2)cc1 (stereo not shown) [Example 231] | 34
45 | CCOc1ccc(C2=C(C#N)C(=O)NC(c3ccc(OCCCC(F)(F)F)cc3)(C(F)(F)F)C2)cc1F (stereo not shown) [Example 264] | 46
46 | COc1ccc(C(=O)NC2=C(c3ccc(C)cc3)CC(c3cnn(CCCCCC(F)(F)F)c3)(C(F)(F)F)NC2=O)cc1 (stereo not shown) [Example 228] | 7
47 | O=C1NC(c2ccc(OCCCCCC(F)(F)F)c(F)c2)(C(F)(F)F)CC(c2ccc3ccccc3c2)=C1c1nn[nH]n1 (stereo not shown) [Example 309] | 1
48 | COc1ccc(C2=C(C#N)C(=O)NC(c3ccc(OCCCC(F)(F)F)cc3)(C(F)(F)F)C2)cc1OC (stereo not shown) [Example 216] | 440
49 | COOCNc1ccc(C2=C(C#N)C(=O)NC(c3ccc(OCCCC(F)(F)F)cc3)(C(F)(F)F)C2)cc1 (stereo not shown) [Example 257] | 421
50 | Cc1ccc(C2=C(n3cnnn3)C(=O)NC(c3ccc(OCCCC(F)(F)F)cc3)(C(F)(F)F)C2(F)F)cc1 (stereo not shown) [Example 159] | 16700
51 | COc1ccc(C2=C(C#N)C(=O)NC(c3ccc(OCCCC(F)(F)F)cc3)(C(F)(F)F)C23CC3)cc1 (stereo not shown) [Example 14, 8-(4-Methoxyphenyl)-6-oxo-4-(4-(4,4,4-trifluorobutoxyl)phenyl)-4-(trifluoro-methyl)-5-azaspiro[2.5]oct-7-ene-7-carbonitrile] | 2050
52 | Cc1ccc(C2=C(NC(=O)c3nnn[nH]3)C(=O)NC(c3ccc(OCCCC(F)(F)F)cc3)(C(F)(F)F)C2)cc1 (stereo not shown) [Example 310] | 4
53 | COCc1ccc(C2=C(C#N)C(=O)NC(c3ccc(OCCCC(F)(F)F)cc3)(C(F)(F)F)C2)cc1 (stereo not shown) [Example 260] | 56
54 | Cc1ccc(C2=C(C(=O)Nn3cnc([N+](=O)[O-])n3)C(=O)NC(c3ccc(OCCC(F)(F)F)cc3)(C(F)(F)F)C2)cc1 (stereo not shown) [Example 132] | 163
55 | CCCCCC#CC1(C(F)(F)F)CC(c2ccc(C)cc2)=C(c2nn[nH]n2)C(=O)N1 (stereo not shown) [Example 293] | 7
56 | COc1ccc(C2=C(c3nn[nH]n3)C(=O)NC(C#CCCc3ccccc3)(C(F)(F)F)C2)cc1 (stereo not shown) [Example 294] | 84
57 | Cc1cccc(C2=C(c3nn[nH]n3)C(=O)NC(c3ccc(OCCCC(F)(F)F)cc3)(C(F)(F)F)C2)c1 (stereo not shown) [Example 96] | 1430
58 | CCOc1ccc(C2=C(c3nn[nH]n3)C(=O)NC(c3ccc(OCCCC(F)(F)F)cc3)(C(F)(F)F)C2)cc1 (stereo not shown) [Example 92] | 136

— patent US9187424B1, “Aryl dihydropyridinones and piperidinone MGAT2 inhibitors” (Bristol-Myers Squibb Company, priority 2011, dated 2015)
